Active and inactive are the calls of the source. No cut-off for these calls is given here.
Legend:
U-87 MG [1] = experiment: Antiproliferative activity against human U-87 MG cells harboring wildtype IDH1 assessed as inhibition of cell growth incubated for 24 hrs by CCK8 assay; type: functional, cell-based, U-87MG ATCC
U-87 MG [2] = experiment: Antiproliferative activity against human U-87 MG cells harboring wildtype IDH1 assessed as inhibition of cell growth incubated for 48 hrs by CCK8 assay; type: functional, cell-based, U-87MG ATCC
U-87 MG [3] = experiment: Antiproliferative activity against human U-87 MG cells harboring wildtype IDH1 assessed as inhibition of cell growth incubated for 72 hrs by CCK8 assay; type: functional, cell-based, U-87MG ATCC
U-87 MG [4] = type: functional, cell-based, U-87MG ATCC; details: Homo sapiens, 24 h
U-87 MG [5] = type: functional, cell-based, U-87MG ATCC; details: Homo sapiens, 48 h
U-87 MG [6] = type: functional, cell-based, U-87MG ATCC; details: Homo sapiens, 72 h
U-87 MG [7] = experiment: Synergistic antiproliferative activity against human U-87 MG cells harboring wildtype IDH1 assessed as inhibition of cell growth incubated for 48 hrs in presence of FK866 by CCK8 assay; type: functional, cell-based, U-87MG ATCC
U-87 MG [8] = type: functional, cell-based, U-87MG ATCC; details: Homo sapiens, 48 h; remark: listed apart in the source
U-87 MG [9] = experiment: Synergistic antiproliferative activity against human U-87 MG cells harboring wildtype IDH1 assessed as combination index incubated for 48 hrs in presence of FK866 by CCK8 assay; type: functional, U-87MG ATCC
U-87 MG [10] = type: functional, Homo sapiens, U-87MG ATCC; details: time 48 hrs
U-87MG ATCC [11] = experiment: Effect on intracellular NADP+ level in human U-87 MG cells harboring wildtype IDH1; type: functional, cell-based
U-87MG ATCC [12] = type: functional, cell-based; details: Homo sapiens, dose 0.5 µM, time 48.0 hrs
U-87 MG [13] = type: functional, Homo sapiens, U-87MG ATCC; details: dose 300 mg/kg; route po; time 35 day
U-87 MG [14] = type: functional, Homo sapiens, U-87MG ATCC; details: dose 300 mg/kg; route po; time 35 day; remark: listed apart in the source
U-87 MG [15] = type: functional, organism-based; details: Homo sapiens; U-87MG ATCC; dose 300.0 mg/kg, route po, time 35.0 day
U-87 MG [16] = experiment: cells; details: Homo sapiens, 48 h, read-out: Activity

For `Cc1cc([C@H](C)Nc2nccc(N3C(=O)OC[C@@H]3[C@H](C)F)n2)ncc1-c1ccnc(C(F)(F)F)c1`, the IC50 (U-87 MG [1]) was 20100 nM, the IC50 (U-87 MG [2]) was 7570 nM and the IC50 (U-87 MG [3]) was 3540 nM. For the same compound, the IC50 (U-87 MG [4]) was 1040 nM, the IC50 (U-87 MG [5]) was 440 nM and the IC50 (U-87 MG [6]) was 360 nM. It also gave an IC50 (U-87 MG [7]) of 1690 nM, an IC50 (U-87 MG [8]) of 450 nM and a CI (U-87 MG [9]) of 0.83. The CI (U-87 MG [10]) was 0.91, the Activity (U-87MG ATCC [11]) was “inactive” and the Activity (U-87MG ATCC [12]) was “inactive”. For the same compound, the MST (U-87 MG [13]) was 23.5 days, the MST (U-87 MG [14]) was 26.5 days and the Activity (U-87 MG [15]) was “Active”. For the same compound, the viability at 1 µM (U-87 MG [16]) was 34.7%.

Source: ChEMBL document CHEMBL5506022, “Discovery of Novel Dual Inhibitors Targeting Mutant IDH1 and NAMPT for the Treatment of Glioma with IDH1Mutation” (J Med Chem, 2024)
